Measured values reported in ChEMBL document CHEMBL5344421, “Chemical Analysis and Antidiabetic Potential of a Decoction from Stevia serrata Roots” (J Nat Prod, 2024).
Calls of active or inactive are those of the source. The calls are words filed in the database; no cut-off is given here.

Key:
[1] = target: T1, Tyrosine-protein phosphatase non-receptor type 1 (Homo sapiens, UniProt P18031); experiment: Inhibition of Protein tyrosine phosphatase 1B (unknown origin) activity by spectrophotocolorimetric analysis
T1 sequence (P18031 whole entry): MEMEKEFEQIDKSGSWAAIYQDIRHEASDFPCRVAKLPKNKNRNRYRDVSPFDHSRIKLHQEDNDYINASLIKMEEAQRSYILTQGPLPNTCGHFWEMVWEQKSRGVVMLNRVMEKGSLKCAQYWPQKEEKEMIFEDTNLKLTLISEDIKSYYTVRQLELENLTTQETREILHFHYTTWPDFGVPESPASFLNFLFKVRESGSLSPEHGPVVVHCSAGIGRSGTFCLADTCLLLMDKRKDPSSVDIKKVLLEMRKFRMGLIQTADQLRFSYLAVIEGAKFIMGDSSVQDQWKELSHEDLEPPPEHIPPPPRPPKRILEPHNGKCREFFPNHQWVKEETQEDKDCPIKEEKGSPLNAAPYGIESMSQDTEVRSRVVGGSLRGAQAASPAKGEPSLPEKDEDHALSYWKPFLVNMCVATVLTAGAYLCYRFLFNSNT

[2] = organism: Sus scrofa; experiment: (§1) Inhibition of porcine pancreatic alpha-amylase measured after 40 mins by spectrophotocolorimetric enzymatic assay
[3] = target: T2, Pancreatic triacylglycerol lipase (Sus scrofa) (UniProt P00591); experiment: Inhibition of porcine pancreatic lipase measured after 40 mins by spectrophotocolorimetric enzymatic assay
T2 sequence (whole entry): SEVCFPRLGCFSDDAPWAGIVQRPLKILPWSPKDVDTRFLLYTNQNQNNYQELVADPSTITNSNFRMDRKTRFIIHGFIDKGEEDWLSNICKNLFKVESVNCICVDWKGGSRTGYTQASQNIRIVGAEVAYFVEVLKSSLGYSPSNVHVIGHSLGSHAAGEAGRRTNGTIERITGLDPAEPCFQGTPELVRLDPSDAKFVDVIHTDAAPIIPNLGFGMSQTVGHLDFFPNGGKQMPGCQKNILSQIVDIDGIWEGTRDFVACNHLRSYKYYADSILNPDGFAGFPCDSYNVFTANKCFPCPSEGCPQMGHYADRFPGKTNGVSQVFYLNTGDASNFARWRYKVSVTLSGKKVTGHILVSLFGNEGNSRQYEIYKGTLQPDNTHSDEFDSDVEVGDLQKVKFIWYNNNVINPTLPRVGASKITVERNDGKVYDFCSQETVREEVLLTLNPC

[4] = test system: Mus musculus; experiment: Antihyperglycemic activity in STZ-hyperglycemic mouse assessed as decrease in blood glucose level at 150 mg/kg, po measured upto 5 hrs after administration; type: functional, organism-based
[5] = test system: Mus musculus; experiment: Hypoglycemic effect in normoglycemic mouse assessed as decrease in blood glucose level at 5 to 50 mg/kg, po measured upto 5 hrs after administration; type: functional, organism-based; details: dose 5-50 mg/kg
[6] = test system: Mus musculus; experiment: Antihyperglycemic activity in normoglycemic mouse assessed as decrease in at 50 mg/kg, po measured upto 120 min after administration by oral glucose tolerance test; type: functional, organism-based
[7] = test system: Mus musculus; experiment: Antihyperglycemic activity in STZ-induced hyperglycemic CD1 mouse model assessed as reduction in blood glucose AUC at 50 mg/kg, ip measured upto 120 min intraperitoneal by insulin tolerance test; type: functional, organism-based
[8] = test system: Mus musculus; experiment: Antihyperglycemic activity in STZ-hyperglycemic mouse assessed as decrease in at 50 mg/kg, po measured upto 120 min after administration by oral glucose tolerance test; type: functional, organism-based
[9] = as §1; parameters: species or system Sus scrofa

Row | IC50 [9] [µM] | SMILES | IC50 [1] [µM] | inhibition [2] | inhibition [3] | Activity [4] | Activity [5] | Activity [6] | Activity [7] | Activity [8]
1 |  | C=C1[C@@H]2CC[C@H]3[C@]4(C)CCC[C@@](C)(C(=O)O[C@@H]5O[C@H](CO)[C@@H](O[C@@H]6OC[C@H](O)[C@H](O)[C@H]6O)[C@H](OC(C)=O)[C@H]5OC(C)=O)[C@H]4CC[C@]3(C2)[C@H]1O[C@@H]1O[C@H](CO)[C@@H](O)[C@H](O)[C@H]1O | 928 | inactive | inactive |  |  |  |  | 
2 |  | C=C1C[C@@]23CC[C@H]4[C@@](C)(CCC[C@@]4(C)C(=O)O[C@@H]4O[C@H](CO)[C@@H](O[C@@H]5OC[C@H](O)[C@H](O)[C@H]5O)[C@H](OC(C)=O)[C@H]4OC(C)=O)[C@@H]2[C@@H](O)[C@@H]1C(=O)C3 | 527 | inactive | inactive | Active | Active | Active | Active | Active
3 | 3.2 | C[C@H]1O[C@H](O[C@H]2[C@H](O)[C@@H](O)[C@@H](O[C@H]3[C@H](O)[C@@H](O)C(O)O[C@@H]3CO)O[C@@H]2CO)[C@H](O)[C@@H](O)[C@@H]1N[C@H]1C=C(CO)[C@@H](O)[C@H](O)[C@H]1O (stereo partly specified) [ACARBOSE] |  |  |  |  |  |  |  | 
4 |  | CC(=O)O[C@@H]1[C@@H](OC(C)=O)[C@H](OC(=O)[C@]2(C)CCC[C@@]3(C)[C@@H]4[C@@H](O)C[C@@H]5C[C@@]4(CC[C@@H]32)C[C@@]5(O)CO)O[C@H](CO)[C@H]1O[C@@H]1OC[C@H](O)[C@H](O)[C@H]1O | 31.8 | inactive | inactive |  |  |  |  | 
5 |  | CC(=O)O[C@@H]1CC[C@]2(C)[C@H]3CCC4=C([C@@H](C)CCC=C(C)C)CC[C@@]4(C)[C@]3(C)CC[C@H]2C1(C)C | 1180 | inactive | inactive |  |  |  |  | 
6 |  | CC(=O)O[C@@H]1[C@@H](OC(C)=O)[C@H](OC(=O)[C@]2(C)CCC[C@@]3(C)[C@@H]4[C@@H](O)[C@@H]5C(=O)C[C@]4(C=C5C)CC[C@@H]32)O[C@H](CO)[C@H]1O[C@@H]1OC[C@H](O)[C@H](O)[C@H]1O | 532 | inactive | inactive |  |  |  |  | 
